From US10221163B2 (priority 2015, dated 2019)
Like-named read-outs stand apart in the source and are kept apart here.

How the values were obtained:
[1] = tested on: Pseudomonas aeruginosa efflux+ (MB9798), IMP-1; format: cell-based; details: concentration restoring susceptibility to imipenem at 2 μg/mL in the presence of a class A, C, D serine β-lactamase inhibitor closely related to relebactam
Method in brief: (§1)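 Steps: add fixed imipenem and/or ceftazidime (usually CLSI breakpoint) and fixed AmpC-directed class A/C inhibitor to microbroth MIC wells; titrate MBL inhibitor; record concentration regaining susceptibility for each PAO1-derived strain; divide efflux+ by efflux− value.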

[2] = tested on: Pseudomonas aeruginosa MB9798 vs MB9799; details: ratio MITC95 PA_9798/MITC95 PA_9799
Method in brief: as §1

VIM-1 = VIM-1 (Pseudomonas aeruginosa (strain ATCC 15692 / DSM 22644 / CIP 104116 / JCM 14847 / LMG 12228 / 1C / PRS 101 / PAO1), UniProt A0A0F7KYQ8); test: biochemical; details: CCF2-FA substrate, 30 pM enzyme, 2 hours at 25° C.
Method in brief: (§2)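 Class B activity is measured in the presence of compound by fluorescence with CCF2-FA after a 2-hour incubation at 25° C. IC50 is taken from a 4-parameter fit of semi-logarithmic dose-response data.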

[3] = tested on: Klebsiella pneumoniae expressing VIM-1 (IHMA599644); format: cell-based; details: with imipenem 1 μg/ml; 95% inhibition of bacterial growth
Method in brief: (§3)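 Imipenem 1 μg/ml + inhibitor; MBL-expressing clinical strains in 1.1×CAMHB, inoculum from saline suspension diluted 1:100; 35° C, 22–24 h; absorbance read-out.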

[4] = tested on: Serratia marcescens expressing IMP-1 (CL5741); format: cell-based; details: with imipenem 1 μg/ml; 95% inhibition of bacterial growth
Method in brief: as §3

[5] = tested on: Escherichia coli expressing NDM-1 (CLB30005, CLB30016); format: cell-based; details: with imipenem 1 μg/ml; 95% inhibition of bacterial growth
Method in brief: as §3

[6] = tested on: Pseudomonas aeruginosa efflux− (MB9799), IMP-1; format: cell-based; details: concentration restoring susceptibility to imipenem at 2 μg/mL in the presence of a class A, C, D serine β-lactamase inhibitor closely related to relebactam
Method in brief: as §1

NDM-1 = NDM-1 (Klebsiella pneumoniae, UniProt C7C422); test: biochemical; format: biochemical; details: fluorescence assay, CCF2-FA substrate, 1 pM enzyme, 2 hours at 25° C.; read-out: NDM-1 IC50
Chain of NDM-1 (C7C422 whole entry, looked up, species assumed): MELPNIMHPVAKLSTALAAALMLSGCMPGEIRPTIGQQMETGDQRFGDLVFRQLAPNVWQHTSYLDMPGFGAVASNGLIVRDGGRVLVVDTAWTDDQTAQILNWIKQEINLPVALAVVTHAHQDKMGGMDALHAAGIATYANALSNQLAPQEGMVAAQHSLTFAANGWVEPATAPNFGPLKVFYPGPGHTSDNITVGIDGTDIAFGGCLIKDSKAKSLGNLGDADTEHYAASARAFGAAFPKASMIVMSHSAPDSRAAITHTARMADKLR
Method in brief: as §2

IMP-1 = IMP-1 (Serratia marcescens, UniProt P52699); test: biochemical; format: biochemical; details: fluorescence assay, CCF2-FA substrate, 2 pM enzyme, 2 hours at 25° C.; read-out: IMP-1 IC50
Chain of IMP-1 (P52699 whole entry, looked up, species assumed): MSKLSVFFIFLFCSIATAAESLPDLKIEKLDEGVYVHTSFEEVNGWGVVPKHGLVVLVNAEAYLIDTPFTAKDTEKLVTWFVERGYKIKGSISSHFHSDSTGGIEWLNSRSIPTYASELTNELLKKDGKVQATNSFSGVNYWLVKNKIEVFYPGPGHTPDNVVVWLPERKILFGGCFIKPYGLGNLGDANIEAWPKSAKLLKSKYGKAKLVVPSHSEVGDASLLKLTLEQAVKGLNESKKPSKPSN
Method in brief: as §2

[7] = fluorescence assay, read-out: VIM-1 IC50

SMILES | P. aeruginosa expressing IMP-1, efflux + (MB9798) MITC95 [1] | Efflux ratio [2] | IC50 (VIM-1; [7]) | Klebsiella pneumoniae expressing VIM-1 (IHMA599644) MITC95 [3] | Serratia marcescens expressing IMP-1 (CL5741) MITC95 [4] | Escherichia coli expressing NDM-1 (CLB30016) MITC95 [5] | P. aeruginosa expressing IMP-1, efflux − (MB9799) MITC95 [6] | IC50 (NDM-1) | IC50 (IMP-1) | IC50 (VIM-1; VIM-1 IC50, fluorescence assay)
Nc1nc2c(-c3ccc(S(=O)(=O)N4CCNC(=O)C4)c(S(N)(=O)=O)c3-c3nnn[nH]3)cccc2s1 [Example 28, 3-(2-amino-1,3-benzothiazol-4-yl)-6-[(3-oxopiperazin-1-yl)sulfonyl]-2-(1H-tetrazol-5-yl)benzenesulfonamide] | 12.5 µM | 4.00 | 0.726 nM | 12.5 µM | 6.25 µM | 25 µM | 3.125 µM | 0.646 nM | 0.646 nM | –
Nc1nc2c(-c3ccc(S(=O)(=O)N4CCOCC4)c(S(N)(=O)=O)c3-c3nnn[nH]3)cccc2s1 [Example 29, 3-(2-amino-1,3-benzothiazol-4-yl)-6-(morpholin-4-ylsulfonyl)-2-(1H-tetrazol-5-yl)benzenesulfonamide] | 50 µM | 16.00 | – | 25 µM | 6.25 µM | 25 µM | 3.125 µM | 1.35 nM | 2.08 nM | 3.06 nM
Nc1nc2c(-c3ccc(S(=O)(=O)NCCC4CNC4)c(S(N)(=O)=O)c3-c3nnn[nH]3)cccc2s1 [Example 30, 4-(2-amino-1,3-benzothiazol-4-yl)-N1-(2-azetidin-3-ylethyl)-3-(1H-tetrazol-5-yl)benzene-1,2-disulfonamide] | 1.563 µM | 1.00 | – | 6.25 µM | 3.125 µM | 6.25 µM | 1.563 µM | 0.0686 nM | 0.369 nM | 0.308 nM
CNCCNS(=O)(=O)c1ccc(-c2cccc3sc(N)nc23)c(-c2nnn[nH]2)c1S(N)(=O)=O [Example 31, 4-(2-amino-1,3-benzothiazol-4-yl)-N^1-[2-(methylamino)ethyl]-3-(1H-tetrazol-5-yl)benzene-1,2-disulfonamide] | 2.344 µM | 1.50 | 8.18 nM | 6.25 µM | 2.344 µM | 9.375 µM | 1.563 µM | 2.59 nM | 2.02 nM | –
Nc1nc2c(-c3ccc(S(=O)(=O)NC4CCNCC4)c(S(N)(=O)=O)c3-c3nnn[nH]3)cccc2s1 [Example 32, 4-(2-amino-1,3-benzothiazol-4-yl)-N1-piperidin-4-yl-3-(1H-tetrazol-5-yl)benzene-1,2-disulfonamide] | 0.7813 µM | 0.50 | – | 3.125 µM | 1.563 µM | 6.25 µM | 1.563 µM | 0.069 nM | 0.34 nM | 0.296 nM
COc1ccnc(CNS(=O)(=O)c2ccc(-c3cccc4sc(N)nc34)c(-c3nnn[nH]3)c2S(N)(=O)=O)n1 [Example 34, 4-(2-amino-1,3-benzothiazol-4-yl)-N1-[(4-methoxypyrimidin-2-yl)methyl]-3-(1H-tetrazol-5-yl)benzene-1,2-disulfonamide] | 25 µM | 4.00 | 0.329 nM | 50 µM | 6.25 µM | 25 µM | 6.25 µM | 0.0816 nM | 0.429 nM | –
Nc1nc2c(-c3ccc(S(=O)(=O)NC4CCc5nccn5C4)c(S(N)(=O)=O)c3-c3nnn[nH]3)cccc2s1 (stereo not drawn) [Example 35, 4-(2-amino-1,3-benzothiazol-4-yl)-N1-(5,6,7,8-tetrahydroimidazo[1,2-a]pyridin-6-yl)-3-(1H-tetrazol-5-yl)benzene-1,2-disulfonamide] | 6.25 µM | 2.00 | 0.256 nM | 12.5 µM | 3.125 µM | 12.5 µM | 3.125 µM | 0.0508 nM | 0.349 nM | –
CN(C)C(=O)CNS(=O)(=O)c1ccc(-c2cccc3sc(N)nc23)c(-c2nnn[nH]2)c1S(N)(=O)=O [Example 36, N^2-{[4-(2-amino-1,3-benzothiazol-4-yl)-2-sulfamoyl-3-(1H-tetrazol-5-yl)phenyl]sulfonyl}-N,N-dimethylglycinamide] | 3.125 µM | 1.00 | – | 12.5 µM | 3.125 µM | 25 µM | 3.125 µM | 0.0369 nM | 0.247 nM | 0.166 nM
Nc1nc2c(-c3ccc(S(=O)(=O)NCC4(CO)CC4)c(S(N)(=O)=O)c3-c3nnn[nH]3)cccc2s1 [Example 37, 4-(2-amino-1,3-benzothiazol-4-yl)-N1-{[1-(hydroxymethyl)cyclopropyl]methyl}-3-(1H-tetrazol-5-yl)benzene-1,2-disulfonamide] | 6.25 µM | 1.00 | – | 12.5 µM | 3.125 µM | 12.5 µM | 6.25 µM | 0.00769 nM | 0.287 nM | 0.198 nM
CN1CC2(CCN(S(=O)(=O)c3ccc(-c4cccc5sc(N)nc45)c(-c4nnn[nH]4)c3S(N)(=O)=O)C2)C1 [Example 38, 3-(2-amino-1,3-benzothiazol-4-yl)-6-[(2-methyl-2,6-diazaspiro[3.4]oct-6-yl)sulfonyl]-2-(1H-tetrazol-5-yl)benzenesulfonamide] | 3.125 µM | 1.00 | – | 12.5 µM | 3.125 µM | 12.5 µM | 3.125 µM | 0.424 nM | 1.43 nM | 2.52 nM
CN(C)C1CN(S(=O)(=O)c2ccc(-c3cccc4sc(N)nc34)c(-c3nnn[nH]3)c2S(N)(=O)=O)C1 [Example 39, 3-(2-amino-1,3-benzothiazol-4-yl)-6-{[3-(dimethylamino)azetidin-1-yl]sulfonyl}-2-(1H-tetrazol-5-yl)benzenesulfonamide] | 50 µM | 16.00 | 0.908 nM | 12.5 µM | 6.25 µM | 12.5 µM | 3.125 µM | 0.506 nM | 0.878 nM | –
Nc1nc2c(-c3ccc(S(=O)(=O)N4CC5CC4CS5(=O)=O)c(S(N)(=O)=O)c3-c3nnn[nH]3)cccc2s1 (stereo not drawn) [Example 40, 3-(2-amino-1,3-benzothiazol-4-yl)-6-[(2,2-dioxido-2-thia-5-azabicyclo[2.2.1]hept-5-yl)sulfonyl]-2-(1H-tetrazol-5-yl)benzenesulfonamide] | 50 µM | 16.00 | – | 25 µM | 6.25 µM | 25 µM | 3.125 µM | 1.7 nM | 1.86 nM | 2.66 nM
